Experimental data as given in paper PMC10674166, “Sustainable Immobilization of β-Glucosidase onto Silver Ions and AgNPs-Loaded Acrylic Fabric with Enhanced Stability and Reusability” (Polymers, 2023).

Tested on: T1, β-glucosidase from almonds (β-Glu)
T1 construct: gene AH; free enzyme
Test: p-nitrophenol release at […] nm, Lineweaver-Burk
Assay type: biochemical
Conditions: free enzyme; standard assay 0.1 M sodium acetate pH 6.0, 37 °C (pH and temperature of the kinetic runs not restated); apparent constant

O=[N+]([O-])c1ccc(O[C@@H]2O[C@H](CO)[C@@H](O)[C@H](O)[C@H]2O)cc1 [p-nitrophenyl-β-D-glucopyranoside]
Km: 2600 µM
